The results in this text go back to ChEMBL document CHEMBL1133725, “Modeling of kappa-opioid receptor/agonists interactions using pharmacophore-based and docking simulations” (J Med Chem, 2000).

In experiment [1] the target is T1, Kappa-type opioid receptor (Cavia porcellus, UniProt P41144). The experiment can be described thus: Inhibition of [3H]diprenorphine binding to Opioid receptor kappa 1 in guinea pig cerebellar fraction.
For experiment [2], the target named is T1, Kappa-type opioid receptor. Put plainly: Inhibition of [3H]U-69593 binding to Opioid receptor kappa 1 in guinea pig brain homogenates. The experiment is classed as tissue-based.
Experiment [3] deals with T1, Kappa-type opioid receptor. Put plainly: Inhibition of [3H]EKC binding to Opioid receptor kappa 1 in guinea pig forebrain.

T1 sequence (P41144 whole entry): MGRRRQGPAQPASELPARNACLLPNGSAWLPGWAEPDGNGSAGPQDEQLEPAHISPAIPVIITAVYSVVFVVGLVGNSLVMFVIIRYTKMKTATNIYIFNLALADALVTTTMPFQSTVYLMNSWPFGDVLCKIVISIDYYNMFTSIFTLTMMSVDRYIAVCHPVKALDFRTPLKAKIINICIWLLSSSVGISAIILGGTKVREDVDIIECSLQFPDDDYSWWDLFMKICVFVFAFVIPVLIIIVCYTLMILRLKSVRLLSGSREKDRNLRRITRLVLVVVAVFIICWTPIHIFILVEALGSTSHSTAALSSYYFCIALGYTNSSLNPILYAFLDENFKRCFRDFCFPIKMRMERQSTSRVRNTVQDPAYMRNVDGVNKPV

As a reminder, the Ki is a dissociation constant, usually derived from enzyme kinetics or from competition with a known ligand. High values mean weaker binding, low ones tighter binding. In turn, `COC(=O)[C@]1(c2ccccc2)C[C@@H]1CN1CC[C@@]2(C)c3cc(O)ccc3CC1[C@@H]2C` showed a Ki in experiment [1] of 240000 pM.
In experiment [2], `O=C1N(c2ccc(Cl)c(Cl)c2)CCCN1[C@H](CN1CCCC1)c1ccccc1` returned an inhibitory constant (Ki) of 420 pM. In other words, the sub-nanomolar range.
In experiment [3], `O=C1[C@@H](c2ccc(Cl)c(Cl)c2)CCN1[C@H]1CCCC[C@@H]1N1CCCC1` yielded a Ki of 10000 pM.
`O=C([C@@H]1CCc2cc(Cl)c(Cl)cc21)N1CCSC[C@H]1CN1CCCC1` had a Ki in experiment [2] of 440 pM.
The same measure, in the same setting: the same measure for `CN1CCCC1[C@@H]1CCCCN1C(=O)Cc1ccc(Cl)c(Cl)c1` (stereo not given in full): 330 pM.
